In patent publication US20160262390A1, “FIELD APPLICATION OF SUGARS TO INCREASE CROP YIELD” (Minn-Dak Farmers Cooperative, priority 2015, published 2016):

How the values were obtained:
[1] = system: sugarbeets; test: Sugarbeet field trial, Wilkin County, Minnesota (ACH 228 seed); assay type: in vivo
Description: To test the efficacy of using a sugar based fertilizer composition with sugarbeets, a field trial using Crystal® brand ACH 228 sugarbeet seed was conducted in Wilkin County, Minnesota. A total of eleven (11) treatments were conducted. Each treatment was replicated four times arranged in a Randomized Complete Block (RCB) Design in the same field. Each replication consisted of a plot having a width of six (6) rows with twenty two (22) inch row spacing having a row length of twenty five (25) feet. To reduce/eliminate any treatment impacts between adjacent plots, only the four (4) interior rows of each plot were treated and evaluated. With the exception of the treatment program applied to the individual plots, which will be discussed below, conventional commercial growing practices were otherwise followed during the field trials. The individual plots experienced the same growing conditions throughout the season.
The treatment regimen for the sugarbeets included one (1) untreated treatment in which no sugar was applied was used as the control element. One (1) treatment included Sun Energy Foliar Fertilizer (SE) available from Micro Nutrients Online. […] treatments were conducted using GS. SE is available in liquid form and was applied by spraying while GS was supplied in a conventional solid form and applied via broadcast spreading. SE is for foliar application and was applied according to the labeling instructions on post-emergent (Post) sugarbeet plants at the both the 4-Leaf and 8-Leaf stages. GS was applied at a variety of times, both pre-planting (Pre) and on post-emergent sugarbeet plants (Post) at either or both of the 4-Leaf and 8-Leaf stages. When applied during pre-planting (Pre), the GS was spread directly on the soil before spring tillage, lightly worked into the ground and followed by planting of the sugarbeet seed into the treated ground. A summary of the plot treatments are contained in Table 1 below:
Following a conventional growing season, the middle four rows of each plot were harvested and data collected for overall yield (tons of sugarbeets/Acre), sugar per ton (pounds of recoverable sugar/ton of sugarbeets) and sugar per Acre (pounds of recoverable sugar/Acre). Fisher's Exact LSD was the statistical test of choice for mean separation for the individual plots of each treatment. A summary of the sugarbeet harvest data is contained in Table 2 below: […]

[2] = system: soybeans; test: Soybean field trial, Wilkin County, Minnesota (NKS06-H5 seed); assay type: in vivo
Description: To test the efficacy of using a sugar based fertilizer composition with soybeans, field trials using Northrup-King NKS06-H5 soybean seed were conducted in Wilkin County, Minnesota. A total of six (6) treatments were conducted. Each treatment was replicated four times arranged in a Randomized Complete Block (RCB) Design in the same field. Each replication consisted of a plot having a width of six (6) rows with twenty two (22) inch row spacing having a row length of twenty five (25) feet. To reduce/eliminate any treatment impacts between adjacent plots, only the four (4) interior rows of each plot were treated and evaluated. With the exception of the treatment program applied to the individual plots, which will be discussed below, conventional commercial growing practices were otherwise followed during the field trials. The individual plots experienced the same growing conditions throughout the season.
The treatment regimen for the soybeans included one (1) untreated treatment in which no sugar was applied and was used as the control element. One (1) treatment included treatment with Sun Energy Foliar Fertilizer (SE). […] SE was supplied in liquid form and applied by spraying while GS was supplied in a conventional solid form and applied via broadcast spreading. SE is for foliar application and was applied according to the labeling instructions on post-emergent (Post) soybean plants at both the Vegetative Fourth Trifoliolate (V4) and Reproductive Beginning Flowering (R1) stages. GS was applied at a variety of times, both pre-planting (Pre) and on post-emergent (Post) soybean plants at either or the V4 or R1 stages. When applied during pre-planting (Pre), the GS was spread directly on the soil before spring tillage, lightly worked into the ground and followed by planting of the soybean seed into the treated ground. A summary of the plot treatments is contained in Table 4 below:
Following a conventional growing season, the middle four rows of each plot were harvested and data collected for overall yield (bushels of soybeans/Acre), protein dry basis (%) and oil dry basis (%). Fisher's Exact LSD was the statistical test of choice for mean separation for the individual plots of each treatment. A summary of the soybean harvest data is contained in Table 5 below: […]

[3] = Replication 3: 50 pounds/Acre Pre
[4] = Replication 4: 100 pounds/Acre Pre
[5] = Replication 5: 3 pounds/Acre 4-Leaf Post
[6] = Replication 6: 3 pounds/Acre 8-Leaf Post
[7] = Replication 7: 5 pounds/Acre 4-Leaf Post
[8] = Replication 8: 3 pounds/Acre 4-Leaf + 3 pounds/Acre 8-Leaf Post
[9] = Replication 9: 5 pounds/Acre 4-Leaf + 5 pounds/Acre 8-Leaf Post
[10] = Replication 10: 50 pounds/Acre Pre + 3 pounds/Acre 8-Leaf
[11] = Replication 11: 100 pounds/Acre Pre + 5 pounds/Acre 8-Leaf
[12] = Replication 3: 100 pounds/Acre Pre + 3 pounds/Acre Post (V4)
[13] = Replication 4: 3 pounds/Acre Post (R1)
[14] = Replication 5: 5 pounds/Acre Post (R1)
[15] = Replication 6: 100 pounds/Acre Pre + 5 pounds/Acre Post (V4)

OC[C@H]1O[C@@](CO)(O[C@H]2O[C@H](CO)[C@@H](O)[C@H](O)[C@H]2O)[C@@H](O)[C@@H]1O [GS, sucrose]
Pounds of Recoverable Sugar/Acre [1, 3]: 7598.95 pounds/Acre
Pounds of Recoverable Sugar/Ton of Sugarbeets [1, 3]: 282.03 pounds/ton
Tons of Sugarbeets/Acre [1, 3]: 26.94 tons/Acre
Yield Increase (recoverable sugar/Acre vs check) [1, 3]: 9.32%
Pounds of Recoverable Sugar/Acre [1, 4]: 8051.44 pounds/Acre
Pounds of Recoverable Sugar/Ton of Sugarbeets [1, 4]: 278.54 pounds/ton
Tons of Sugarbeets/Acre [1, 4]: 28.91 tons/Acre
Yield Increase (recoverable sugar/Acre vs check) [1, 4]: 15.83%
Pounds of Recoverable Sugar/Acre [1, 5]: 7021.89 pounds/Acre
Pounds of Recoverable Sugar/Ton of Sugarbeets [1, 5]: 276.83 pounds/ton
Tons of Sugarbeets/Acre [1, 5]: 25.41 tons/Acre
Yield Increase (recoverable sugar/Acre vs check) [1, 5]: 1.02%
Pounds of Recoverable Sugar/Acre [1, 6]: 7279.72 pounds/Acre
Pounds of Recoverable Sugar/Ton of Sugarbeets [1, 6]: 284.34 pounds/ton
Tons of Sugarbeets/Acre [1, 6]: 25.64 tons/Acre
Yield Increase (recoverable sugar/Acre vs check) [1, 6]: 4.73%
Pounds of Recoverable Sugar/Acre [1, 7]: 6712.87 pounds/Acre
Pounds of Recoverable Sugar/Ton of Sugarbeets [1, 7]: 274.69 pounds/ton
Tons of Sugarbeets/Acre [1, 7]: 24.43 tons/Acre
Yield Increase (recoverable sugar/Acre vs check) [1, 7]: −3.43%
Pounds of Recoverable Sugar/Acre [1, 8]: 6125.93 pounds/Acre
Pounds of Recoverable Sugar/Ton of Sugarbeets [1, 8]: 270.05 pounds/ton
Tons of Sugarbeets/Acre [1, 8]: 22.81 tons/Acre
Yield Increase (recoverable sugar/Acre vs check) [1, 8]: −11.87%
Pounds of Recoverable Sugar/Acre [1, 9]: 6957.73 pounds/Acre
Pounds of Recoverable Sugar/Ton of Sugarbeets [1, 9]: 289.83 pounds/ton
Tons of Sugarbeets/Acre [1, 9]: 24.00 tons/Acre
Yield Increase (recoverable sugar/Acre vs check) [1, 9]: 0.10%
Pounds of Recoverable Sugar/Acre [1, 10]: 7250.53 pounds/Acre
Pounds of Recoverable Sugar/Ton of Sugarbeets [1, 10]: 276.34 pounds/ton
Tons of Sugarbeets/Acre [1, 10]: 26.24 tons/Acre
Yield Increase (recoverable sugar/Acre vs check) [1, 10]: 4.31%
Pounds of Recoverable Sugar/Acre [1, 11]: 7963.70 pounds/Acre
Pounds of Recoverable Sugar/Ton of Sugarbeets [1, 11]: 274.29 pounds/ton
Tons of Sugarbeets/Acre [1, 11]: 29.03 tons/Acre
Yield Increase (recoverable sugar/Acre vs check) [1, 11]: 14.57%
yield increase in comparison to the untreated check ([1]; every pre-planting application of GS): ≥ 4%
yield increase as compared to the untreated check ([1]; largest pre-planting applications of GS): ≥ 14%
yield data ([1]; only post-emergent application of GS at 4-Leaf or 8-Leaf stage): inconclusive
side-by-side visual comparison of soybean plants with untreated check ([2]; GS 100 pounds/acre prior to planting, 40 and 60 days after planting (FIGS. 7-9)): larger more robust soybean plants
Bushels of Soybeans/Acre [2, 12]: 52.92 bushels/Acre
Yield Increase (Treatment Bushels of Soybeans/Acre)/(Check Bushels of Soybeans/Acre) [2, 12]: 31.84%
Bushels of Soybeans/Acre [2, 13]: 35.56 bushels/Acre
Yield Increase (Treatment Bushels of Soybeans/Acre)/(Check Bushels of Soybeans/Acre) [2, 13]: −11.41%
Bushels of Soybeans/Acre [2, 14]: 40.14 bushels/Acre
Yield Increase (Treatment Bushels of Soybeans/Acre)/(Check Bushels of Soybeans/Acre) [2, 14]: 0.00%
Bushels of Soybeans/Acre [2, 15]: 45.28 bushels/Acre
Yield Increase (Treatment Bushels of Soybeans/Acre)/(Check Bushels of Soybeans/Acre) [2, 15]: 12.81%
yield increase as compared to the untreated check ([2]; every pre-planting (Pre) application of GS): at least 12.8%
yield data ([2]; only post-emergent application of GS): inconclusive
